Results on 24 molecules are retold here after patent US8802728B2, “Analgesic compounds, methods, and formulations” (Eli Lilly and Company, priority 2011, dated 2014).

In experiment [1] the test system is rat. Description: Rat tail flick assay (tail flick latency in response to heat). To be noted: read-out: % MPE (Maximum Possible Effect), tail flick. Type of experiment: in vivo. The text has this:
The Tail Flick Assay, based upon the methods of D'Amour & Smith (J. Pharmacol. Exp. Therap., 72: 74-79, 1941), is used to measure loss of pain sensation in the rat tail, allowing the experimenter to screen drugs for analgesic effect. Since then, the method has been used in a number of publications. For example, it was used to evaluate the analgesic effect of O-alkyl derivatives of tramadol by Liming Shao and Michael Hewitt etc. (Boiorganic & Medicinal Chemistry Letters, 18:1674-1680, 2008).
A Tail Flick Unit is used to measure tail flick latency in response to heat. The unit consists of an infrared (I.R.) source (50 W bulb) with adjustable intensity that is focused through a flush mounted window on the upper panel of the unit and onto the rat tail. Once I.R. source is focused on the rat tail and turned on, a timer starts. When the thermal threshold for pain is reached and the rat flicks its tail, the I.R source automatically shuts off and the timer stop, displaying the latency time.
On the day of experiment, the animals are tested to determine baseline latency. Each rat is given one test to determine latency to tail flick with a cut off 10 seconds. Baselines are recorded and those animals with a baseline latency of 2-5 seconds are used in the experiment. Animals are divided into several groups according to the baseline latency. The Tail-flick latencies are measured at different timepoints for up to 180 minutes after administration of vehicle or test articles. If treatment group continues to display pain control after 180 minutes, additional measurements are taken every 60 minutes until pain control is no longer observed.
I.R. Source is set at 40 units (determined to elicit tail flick response in desired 2-5 seconds in naïve animals).
Test articles or vehicle are administered by intravenous (IV) injection through the tail vein or by oral gavage at time 0. Animals are gently restrained and held on top of a tail flick unit. The tail is then wiped clean with a cotton square and placed over the I.R. source so that the beam is focused at approximately midway the length of the tail. After the rat is in position, the I.R. source is turned on. When the thermal threshold for pain is reached, the rat flicked its tail and the I.R. source automatically shuts off. Latency time (in seconds) is then recorded.
Data are recorded and graphed as % MPE (Maximum Possible Effect). % MPE is calculated using the following formula: % MPE=[(Test latency−Baseline latency)/(Cut off latency(10 sec.'s)−Baseline latency)]*100
Compounds were administered by the IV route in 20% 2-hydroxypropyl-beta-cyclodextrin (20% HP-β-CD). The dose levels of test article were 2.5, 5, or 20 mg/kg. Examples 2, 3, 13, 40, 77, 78, 114, and Tramadol provided at least 50% MPE at 20 mg/kg. Compounds 5, 8, 17, 105, 107, 148, 158, and 159 provided at least 50% MPE at 5 mg/kg. Compounds 82, 84, and 116 provided at least 50% MPE at 2.5 mg/kg.
Compounds were administered by oral gavage in 0.5% methylcellulose at 20 or 30 mg/kg. Examples 2, 3, 13, 115, and Tramadol provided at least 50% MPE at 30 mg/kg. Compounds 5, 39, 65, 106, and 115 provided at least 50% MPE at 20 mg/kg.
A general note: Hot-plate and tail-flick tests time the reaction to a heat stimulus.

The nature of experiment [2]: Unspecified bioassay(s). The settings on record: comparison of the two enantiomers of Example 181.
The mark [3] stands for this setting: oral gavage in 0.5% methylcellulose.

Where a name gives a salt, the structure may show the parent alone. Read-outs that look alike come from different tables or passages of the source.

`COc1cccc([C@@]2(O)C[C@H]3CCC(C3)[C@@H]2CN(C)C)c1` (stereo in doubt) [Example 2, 2-dimethylaminomethyl-3-(3-methoxy-phenyl)-bicyclo[3.2.1]octan-3-ol]: the inhibition in vivo at 20 mg/kg in experiment [1] (IV in 20% HP-β-CD) was not below 50%. The inhibition in vivo at 30 mg/kg in experiment [1] (setting [3]) is not below 50%.
Regarding `COc1cc(F)cc([C@@]2(O)C[C@H]3CC[C@H](C3)[C@@H]2CN(C)C)c1` (stereo in doubt) [Example 3, 2-Dimethylaminomethyl-3-(3-fluoro-5-methoxy-phenyl)-bicyclo[3.2.1]octan-3-ol], the inhibition in vivo at 20 mg/kg in experiment [1] (IV in 20% HP-β-CD) was not below 50%. Further, in experiment [1] (setting [3]), the inhibition in vivo at 30 mg/kg is not below 50%.
For `COc1ccc(F)c([C@@]2(O)C[C@H]3CC[C@H](C3)[C@@H]2CN(C)C)c1` (stereo in doubt) [Example 5, 2-Dimethylaminomethyl-3-(2-fluoro-5-methoxy-phenyl)-bicyclo[3.2.1]octan-3-ol], in experiment [1] (setting [3]), the inhibition in vivo at 20 mg/kg was not below 50%.
Turning to `COc1cc(C)cc([C@@]2(O)C[C@H]3CC[C@H](C3)[C@@H]2CN(C)C)c1` (stereo in doubt) [Example 8, 2-Dimethylaminomethyl-3-(3-methoxy-5-methyl-phenyl)-bicyclo[3.2.1]octan-3-ol], in experiment [1] (IV in 20% HP-β-CD), the inhibition in vivo at 5 mg/kg is not below 50%.
As to `CN(C)C[C@H]1[C@@H]2CC[C@@H](C2)C[C@]1(O)c1cccc(O)c1` (stereo in doubt) [Example 13, 2-Dimethylaminomethyl-3-(3-hydroxy-phenyl)-bicyclo[3.2.1]octan-3-ol], in experiment [1] (IV in 20% HP-β-CD), the inhibition in vivo at 20 mg/kg is not below 50%. Further, in experiment [1] (setting [3]), the inhibition in vivo at 30 mg/kg was not below 50%.
As for `CN(C)C[C@H]1C2CC[C@@H](C2)C[C@]1(O)c1cc(O)ccc1F` (stereo in doubt) [Example 39, 2-dimethylaminomethyl-3-(2-fluoro-5-hydroxy-phenyl)-bicyclo[3.2.1]octan-3-ol], the inhibition in vivo at 20 mg/kg in experiment [1] (setting [3]) is not below 50%.
Consider `CN(C)C[C@H]1[C@@H]2CC[C@@H](C2)C[C@]1(O)c1cc(O)cc(F)c1` (stereo in doubt) [Example 40, 2-Dimethylaminomethyl-3-(3-fluoro-5-hydroxy-phenyl)-bicyclo[3.2.1]octan-3-ol], for which the inhibition in vivo at 20 mg/kg in experiment [1] (IV in 20% HP-β-CD) is not below 50%.
The same measure, in the same setting: then `CN(C)C[C@@H]1C(c2cccc(O)c2)=C[C@@H]2CC[C@H]1C2` (stereo in doubt) [Example 77, 3-(4-dimethylaminomethyl-bicyclo[3.2.1]oct-2-en-3-yl)-phenol], with not below 50%; and `COc1cccc(C2=C[C@H]3CC[C@H](C3)[C@@H]2CN(C)C)c1` (stereo in doubt) [Example 78, [3-(3-Methoxy-phenyl)-bicyclo[3.2.1]oct-3-en-2-ylmethyl]-dimethyl-amine], with not below 50%.
`CN(C)C[C@@H]1C(c2cc(O)cc(F)c2)=C[C@H]2CC[C@@H]1C2` (stereo in doubt) [Example 82, 3-(4-Dimethylaminomethyl-bicyclo[3.2.1]oct-2-en-3-yl)-5-fluoro-phenol]: the inhibition in vivo at 2.5 mg/kg in experiment [1] (IV in 20% HP-β-CD) is not below 50%.
Still for that read-out and setting: for `CN(C)C[C@@H]1C(c2cc(O)ccc2F)=C[C@H]2CC[C@@H]1C2` (stereo in doubt) [Example 84, 3-(4-Dimethylaminomethyl-bicyclo[3.2.1]oct-2-en-3-yl)-4-fluoro-phenol] the value was not below 50%.
In the case of `CN(C)C[C@@H]1C(c2cccc(OC(=O)C(C)(C)C)c2)=C[C@@H]2CC[C@H]1C2` (stereo in doubt) [Example 105, 2,2-dimethyl-propionic acid 3-(4-dimethylaminomethyl-bicyclo[3.2.1]oct-2-en-3-yl)-phenyl ester], the inhibition in vivo at 5 mg/kg in experiment [1] (IV in 20% HP-β-CD) is not below 50%.
Consider `CN(C)C[C@@H]1C(c2cccc(OC(=O)c3ccccc3)c2)=C[C@H]2CC[C@@H]1C2` (stereo in doubt) [Example 106, Benzoic acid 3-(4-dimethylaminomethyl-bicyclo[3.2.1]oct-2-en-3-yl)-phenyl ester], for which, in experiment [1] (setting [3]), the inhibition in vivo at 20 mg/kg was not below 50%.
On to `CN(C)C[C@H]1[C@H]2CC[C@H](C2)C[C@H]1c1cccc(O)c1` (stereo in doubt) [Example 114, 3-(2-dimethylaminomethyl-bicyclo[3.2.1]oct-3-yl)-phenol], for which the inhibition in vivo at 20 mg/kg in experiment [1] (IV in 20% HP-β-CD) is not below 50%.
On to `COc1cccc([C@@H]2C[C@H]3CC[C@H](C3)[C@@H]2CN(C)C)c1` (stereo in doubt) [Example 115, [3-(3-methoxy-phenyl)-bicyclo[3.2.1]oct-2-ylmethyl]-dimethyl-amine], for which, in experiment [1] (setting [3]), the inhibition in vivo at 20 mg/kg was not below 50% and the inhibition in vivo at 30 mg/kg is not below 50%.
For `CN(C)C[C@H]1[C@@H]2CC[C@@H](C2)C[C@H]1c1cc(O)cc(F)c1` (stereo in doubt) [Example 116, 3-(2-dimethylaminomethyl-bicyclo[3.2.1]oct-3-yl)-5-fluoro-phenol], in experiment [1] (IV in 20% HP-β-CD), the inhibition in vivo at 2.5 mg/kg is not below 50%.
Consider `COc1cccc([C@]2(O)[C@@H](CN(C)C)CC[C@@H]3C[C@@H]32)c1` (stereo in doubt) [Example 148, 3-Dimethylaminomethyl-2-(3-methoxy-phenyl)-bicyclo[4.1.0] heptan-2-ol], for which, in experiment [1] (IV in 20% HP-β-CD), the inhibition in vivo at 5 mg/kg is not below 50%.
The same measure, in the same setting: for `CN(C)C[C@H]1CC[C@@H]2C[C@@H]2[C@]1(O)c1cc(O)ccc1F` (stereo in doubt) [Example 158, 3-Dimethylaminomethyl-2-(2-fluoro-5-hydroxy-phenyl)-bicyclo[4.1.0] heptan-2-ol] the value was not below 50%.
Turning to `Cc1cc(O)cc([C@]2(O)[C@@H](CN(C)C)CC[C@@H]3C[C@@H]32)c1` (stereo in doubt) [Example 159, 3-Dimethylaminomethyl-2-(3-hydroxy-5-methyl-phenyl)-bicyclo[4.1.0] heptan-2-ol], in experiment [1] (IV in 20% HP-β-CD), the inhibition in vivo at 5 mg/kg was not below 50%.
With `CN(C)C[C@H]1[C@H]2CC[C@H](C2)C[C@]1(O)c1cccc(O)c1` [(+)-Enantioisomers, (+)-(1S,2R,3R,5R)-2-((dimethylamino)methyl)-3-(3-hydroxyphenyl)bicyclo[3.2.1]octan-3-ol], the “biological activity in bioassay(s)” value in experiment [2] is recorded as “better biological activity than (−)-enantioisomer”.
`COc1ccc(F)c([C@@]2(O)C[C@H]3CC[C@H](C3)[C@@H]2CN(C)C)c1` [Example 17, 2-Dimethylamino-methyl-3-(2-fluoro-5-methoxy-phenyl)-bicyclo[3.2.1]octan-3-ol hydrochloride]: the inhibition in vivo at 5 mg/kg in experiment [1] (IV in 20% HP-β-CD) is not below 50%.
As for `CN(C)C[C@H]1C2CC[C@@H](C2)C[C@]1(O)c1cc(OC(=O)C(C)(C)C)ccc1F` [Example 65, 2,2-dimethyl-propionic acid 3-(2-dimethylaminomethyl-3-hydroxy-bicycle[3.2.1]oct-3-yl)-4-fluoro-phenyl ester], the inhibition in vivo at 20 mg/kg in experiment [1] (setting [3]) is not below 50%.
`CN(C)C[C@@H]1C(c2cc(F)cc(OC(=O)C(C)(C)C)c2)=C[C@H]2CC[C@@H]1C2` [Example 107, 2,2-Dimethyl-propionic-acid 3-(4-dimethyl-aminomethyl-bicyclo[3.2.1]oct-2-en-3-yl)-5-fluoro-phenyl ester]: the inhibition in vivo at 5 mg/kg in experiment [1] (IV in 20% HP-β-CD) is not below 50%.
Consider `COc1cccc(C2(O)CCCCC2CN(C)C)c1` (centres unmarked) [Tramadol, reference compound], for which the inhibition in vivo at 20 mg/kg in experiment [1] (IV in 20% HP-β-CD) was not below 50%. The inhibition in vivo at 30 mg/kg in experiment [1] (setting [3]) is not below 50%.
